Data: BindingDB's records for doi:10.1021/acs.jmedchem.9b00568 (University of Central Florida, 2020)

Assay: Induction of LAT1-mediated polyamine efflux in human L3.6PL cells assessed as reduction in cell viability after 48 hrs by MTS assay

CC(C)CCN1CCN([C@@H](CNCc2ccccc2)CC2CCCCC2)C[C@@H]1CC(C)C
IC50: 3.48 µM
